Measured values taken from US20180125834A1, “METHODS OF TREATING BACTERIAL INFECTIONS AND FUNGAL INFECTIONS USING ENANTIOPURE DEUTERIUM-ENRICHED PIOGLITAZONE” (DeuteRx, LLC, priority 2015, published 2018).

How the values were obtained:
C2C12 cells = details: 30 μM for 15, 30, or 90 min; 10 mM sodium pyruvate
Method: On the day before the assay, C2C12 cells were subcultured in XF96 microplates at a density of 20,000 cells per well. After overnight incubation (37° C., 5% CO2), the cells were washed 3 times with assay medium (Seahorse medium (Seahorse Bioscience, North Billerica, Mass.) containing 10 mM sodium pyruvate, pH 7.4). […] Incubation times of 15, 30, or 90 min were used prior to measurement of maximal respiration, i.e., until addition of FCCP. […] Maximal respiration as oxygen consumption rates (pmoles O2/min) was measured for each compound, at each concentration, and each time point in three separate experiments.

[1] = In vitro stability (enantiomerization, D/H exchange) in C57BL/6 mouse plasma at 37° C.; type: in vitro ADME; details: up to 32 h
Method: (§1) The plasma samples were incubated at 37° C. in duplicate (anticoagulant: K3EDTA). […] Samples were placed at −80° C. until the study was complete. […] The vortexed samples were centrifuged and 50 μL of supernatant was dispensed in a 96-well plate.
(§2) The deuterium in both enantiomers, d-S and d-R, can be lost by D/H exchange to give both protonated enantiomers, h-S and h-R with rate constants kDRR, kDRS, kDSR, and kDSS. At the same time, the protonated enantiomers h-S and h-R can exchange with enantiomerization rate constants kRS and kSR. All four compounds can also degrade with potentially different degradation rate constants kdSd, kdRd, khSd, and khRd.
(§3) Human and mouse plasma data were analyzed independently. […] Data in each species was analyzed using a stepwise approach.
(§4) The step between calculated time points was minimized in order to minimize the local error (proportional to the square of the step size) and the global error (proportional to the step size).

[2] = In vitro plasma stability, half-life of deuterated vs. protonated enantiomers (plasma species not given); type: in vitro ADME; details: 37° C., t1/2=ln(2)/k from fitted rate constants
Method: as §1, §2, §3, §4

[3] = In vitro stability (enantiomerization, D/H exchange) in human plasma at 37° C.; type: in vitro ADME; details: up to 32 h
Method: as §1, §2, §3, §4

[4] = molecular target: T1, human recombinant monoamine oxidase B (Homo sapiens, UniProt P27338); test: Monoamine oxidase B (MAO-B) inhibition, luminescence assay; type: biochemical
T1 sequence (P27338 1-520): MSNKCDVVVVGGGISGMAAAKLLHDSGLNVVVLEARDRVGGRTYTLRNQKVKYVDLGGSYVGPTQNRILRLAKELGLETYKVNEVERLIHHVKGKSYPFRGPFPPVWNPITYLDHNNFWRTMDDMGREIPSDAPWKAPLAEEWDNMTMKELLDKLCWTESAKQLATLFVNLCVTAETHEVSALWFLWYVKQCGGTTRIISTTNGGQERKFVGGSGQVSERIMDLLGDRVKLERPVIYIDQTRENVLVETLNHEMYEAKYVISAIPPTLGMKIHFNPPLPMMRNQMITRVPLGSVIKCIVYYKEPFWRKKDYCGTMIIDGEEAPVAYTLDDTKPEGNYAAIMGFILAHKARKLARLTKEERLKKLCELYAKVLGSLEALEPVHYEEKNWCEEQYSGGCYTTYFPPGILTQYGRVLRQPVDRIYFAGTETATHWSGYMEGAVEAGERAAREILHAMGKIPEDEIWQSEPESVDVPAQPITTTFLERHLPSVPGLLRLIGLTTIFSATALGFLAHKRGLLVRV
Method: The mixtures were incubated at 22° C. for 5 min. Substrate (D-luciferin derivative) was added, and then the mixture was incubated at 37° C. for 60 min. The reaction was stopped by addition of the detection reagent containing luciferase. Luminescence was read after standing for 60 min at room temperature.
Results were expressed as a percentage of the luminescence of the control (enzyme+substrate). IC50 values were obtained by fitting experimental data (mean % luminescence as function of concentration) to the Hill equation with variable slope using non-linear regression analysis.

Row | degradation (sum of peak areas vs. incubation time) [1] | degradation (sum of peak areas vs. incubation time) [3] | difference in inhibition efficacy between d-R-pio and d-S-pio [4] | SMILES | maximal respiration as oxygen consumption rate (OCR) vs. vehicle-treated cells (C2C12 cells) | half-life of deuterated enantiomer vs. corresponding protonated enantiomer [2]
1 |  |  |  | CCc1ccc(CCOc2ccc(CC3SC(=O)NC3=O)cc2)nc1 (racemic) [h-rac-pio, rac-5-({p-[2-(5-Ethyl-2-pyridyl)ethoxy]phenyl}methyl)-1,3-thiazolidine-2,4-dione, reference compound] | inhibited maximal respiration | 
2 | negligible | negligible |  | [2H][C@@]1(Cc2ccc(OCCc3ccc(CC)cn3)cc2)SC(=O)NC1=O [d-S-pio, (S)-5-({p-[2-(5-Ethyl-2-pyridyl)ethoxy]phenyl}methyl)-(5-^2H)-1,3-thiazolidine-2,4-dione] | no significant measurable effect | approximately the same as the half-life for h-S-pio
3 | negligible | negligible | greater than 5 fold | [2H][C@]1(Cc2ccc(OCCc3ccc(CC)cn3)cc2)SC(=O)NC1=O [d-R-pio, (R)-5-({p-[2-(5-Ethyl-2-pyridyl)ethoxy]phenyl}methyl)-(5-^2H)-1,3-thiazolidine-2,4-dione] | inhibited maximal respiration | approximately two-fold
4 | negligible | negligible |  | CCc1ccc(CCOc2ccc(C[C@H]3SC(=O)NC3=O)cc2)nc1 [h-R-pio, (R)-5-({p-[2-(5-ethyl-2-pyridyl)ethoxy]phenyl}methyl)-1,3-thiazolidine-2,4-dione, reference compound] |  | 
5 | negligible | negligible |  | CCc1ccc(CCOc2ccc(C[C@@H]3SC(=O)NC3=O)cc2)nc1 [h-S-pio, (S)-5-({p-[2-(5-ethyl-2-pyridyl)ethoxy]phenyl}methyl)-1,3-thiazolidine-2,4-dione, reference compound] |  | 
